Results taken from ChEMBL document CHEMBL1201862, “PubChem BioAssay data set” (2004).
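These data come from cells grown in 96-well plates and exposed to compound for 48 hours at five concentrations. GI50 is the concentration that inhibits growth by half.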 The source made the active and inactive calls. No stated cut-off is given here; in the data, active = GI50 up to about 1.1 µM and inactive = higher.

How the values were obtained:
Assay in all cases: inhibition of tumour cell growth, NCI panel, 48 h
CCRF-CEM = tested on: CCRF-CEM
U-251 = tested on: U-251
OVCAR-3 = tested on: OVCAR-3
HT-29 = tested on: HT-29
UO-31 = tested on: UO-31
KM12 = tested on: KM12
NCI-H522 = tested on: NCI-H522
DLD-1 = tested on: DLD-1
Hs-578T = tested on: Hs-578T
MCF7 = tested on: MCF7
KM-20L2 = tested on: KM-20L2
HOP-62 = tested on: HOP-62
IGROV-1 = tested on: IGROV-1
EKVX = tested on: EKVX
NCI-H460 = tested on: NCI-H460
RXF 393 = tested on: RXF 393
OVCAR-8 = tested on: OVCAR-8
COLO 205 = tested on: COLO 205
CAKI-1 = tested on: CAKI-1
OVCAR-4 = tested on: OVCAR-4

| SMILES | GI50 (CCRF-CEM) | GI50 (U-251) | GI50 (OVCAR-3) | GI50 (HT-29) | GI50 (UO-31) | GI50 (KM12) | GI50 (NCI-H522) | GI50 (DLD-1) | GI50 (Hs-578T) | GI50 (MCF7) | GI50 (KM-20L2) | GI50 (HOP-62) | GI50 (IGROV-1) | GI50 (EKVX) | GI50 (NCI-H460) | GI50 (RXF 393) | GI50 (OVCAR-8) | GI50 (COLO 205) | GI50 (CAKI-1) | GI50 (OVCAR-4) |
| --- | --- | --- | --- | --- | --- | --- | --- | --- | --- | --- | --- | --- | --- | --- | --- | --- | --- | --- | --- | --- |
| CCSC(=O)N1c2ccc(OC)cc2C=CC1C#N (configuration not stated) | 0.00313 µM (active) | 0.00403 µM (active) | 0.001 µM (active) | 0.00139 µM (active) | < 0.01 µM (active) | 0.00449 µM (active) | 0.00698 µM (active) | < 0.01 µM (active) | 0.36 µM (active) | 0.00883 µM (active) | < 0.01 µM (active) | 0.00841 µM (active) | 0.00373 µM (active) | 0.392 µM (active) | 0.00423 µM (active) | 0.1 µM (active) | 0.00569 µM (active) | 0.00298 µM (active) | < 0.01 µM (active) | 0.308 µM (active) |
| CC(=O)NC1C(OCc2ccccc2)OC(CO)C(O)C1OC(C)C(=O)N[C@@H](C)C(=O)N[C@H](CCC(=O)OCCNc1c2ccccc2nc2cccc([N+](=O)[O-])c12)C(N)=O (some centres not stated) | 0.0189 µM (active) |  | 0.00142 µM (active) | 0.000186 µM (active) | 0.00292 µM (active) | 0.00114 µM (active) | 0.00174 µM (active) | 0.00139 µM (active) |  |  | 0.000175 µM (active) |  | 0.0215 µM (active) | 0.00165 µM (active) | 0.000129 µM (active) | 0.0012 µM (active) | 0.00235 µM (active) | 0.00111 µM (active) | 0.00625 µM (active) | 0.0038 µM (active) |
| Cc1ccc(NC(=O)SCCC(=O)O)cc1 | > 100 µM (inactive) | > 100 µM (inactive) | > 100 µM (inactive) | > 100 µM (inactive) | > 100 µM (inactive) | > 100 µM (inactive) | > 100 µM (inactive) | > 100 µM (inactive) |  |  | > 100 µM (inactive) | > 100 µM (inactive) | 47.4 µM (inactive) | > 100 µM (inactive) | > 100 µM (inactive) | > 100 µM (inactive) | > 100 µM (inactive) | > 100 µM (inactive) | > 100 µM (inactive) | > 100 µM (inactive) |
| CSc1nc2c(ncn2C2OC(CO)C(O)C(O)C2O)c(=O)n1C (configuration not stated) | > 100 µM (inactive) | > 100 µM (inactive) | > 100 µM (inactive) | > 100 µM (inactive) | > 100 µM (inactive) | > 100 µM (inactive) | > 100 µM (inactive) | > 100 µM (inactive) |  | > 100 µM (inactive) | > 100 µM (inactive) | > 100 µM (inactive) | > 100 µM (inactive) | > 100 µM (inactive) | > 100 µM (inactive) | > 100 µM (inactive) | > 100 µM (inactive) | > 100 µM (inactive) |  | > 100 µM (inactive) |
| O=c1n(C2CCCCC2)c(=C(Cl)Cl)c(=C(Cl)Cl)n1C1CCCCC1 | > 100 µM (inactive) | > 100 µM (inactive) | > 100 µM (inactive) | > 100 µM (inactive) | > 100 µM (inactive) | > 100 µM (inactive) | > 100 µM (inactive) | > 100 µM (inactive) |  |  | > 100 µM (inactive) | > 100 µM (inactive) | > 100 µM (inactive) | > 100 µM (inactive) | > 100 µM (inactive) | > 100 µM (inactive) | > 100 µM (inactive) | > 100 µM (inactive) |  | > 100 µM (inactive) |
| CC(C)=CC1CC(=[N+]=[N-])C(=O)C1(C)C (configuration not stated) | > 53 µM (inactive) | > 100 µM (inactive) | > 100 µM (inactive) | > 31.6 µM (inactive) | > 59 µM (inactive) | > 100 µM (inactive) | > 80.7 µM (inactive) | > 100 µM (inactive) |  |  | > 100 µM (inactive) | > 100 µM (inactive) | > 100 µM (inactive) | > 100 µM (inactive) | 99.5 µM (inactive) | > 31.6 µM (inactive) | > 100 µM (inactive) | > 100 µM (inactive) | > 100 µM (inactive) | > 100 µM (inactive) |
| COC(=O)c1c(-c2ccccc2)cc2c3cc(-c4ccccc4)c(C(=O)OC)n3c3ccccc3n12 | > 100 µM (inactive) | > 100 µM (inactive) | > 100 µM (inactive) | > 100 µM (inactive) | > 100 µM (inactive) | > 100 µM (inactive) | > 91 µM (inactive) | > 100 µM (inactive) |  |  | > 100 µM (inactive) | > 100 µM (inactive) | > 100 µM (inactive) | > 100 µM (inactive) | > 100 µM (inactive) | > 44.8 µM (inactive) | > 100 µM (inactive) | > 100 µM (inactive) | > 100 µM (inactive) | 22.6 µM (inactive) |
| C#Cc1ccccc1C(=O)OC | > 100 µM (inactive) | > 100 µM (inactive) | > 100 µM (inactive) | > 100 µM (inactive) | > 100 µM (inactive) | > 100 µM (inactive) | 35.9 µM (inactive) | > 100 µM (inactive) |  |  | > 100 µM (inactive) | > 100 µM (inactive) | > 100 µM (inactive) | > 100 µM (inactive) | > 100 µM (inactive) | > 100 µM (inactive) | > 100 µM (inactive) | > 100 µM (inactive) |  | > 100 µM (inactive) |
| CC(=O)NNc1nc(C)c(C(=O)/C=C/c2cccc([N+](=O)[O-])c2)s1 | > 100 µM (inactive) | > 100 µM (inactive) | > 100 µM (inactive) | > 100 µM (inactive) | > 100 µM (inactive) | > 100 µM (inactive) | > 100 µM (inactive) | > 100 µM (inactive) |  |  | > 100 µM (inactive) | > 100 µM (inactive) | > 100 µM (inactive) | 19.5 µM (inactive) | > 100 µM (inactive) | > 100 µM (inactive) | > 100 µM (inactive) | > 100 µM (inactive) | > 100 µM (inactive) |  |
| Cc1c(N)nc(C2CC(=O)N2CC(N)C(N)=O)nc1C(=O)NC(C(=O)NC(C)C(O)C(C)C(=O)NC(C(=O)NCCc1nc(-c2nc(C(=O)NCCNCC(C)O)cs2)cs1)C(C)O)C(OC1OC(CO)C(O)C(O)C1OC1OC(CO)C(O)C(OC(N)=O)C1O)c1c[nH]cn1 (configuration not stated) | 7.74 µM (inactive) | 1.83 µM (inactive) | 6.56 µM (inactive) | 21.3 µM (inactive) | 0.813 µM (active) | 19.9 µM (inactive) | 0.462 µM (active) | 32.4 µM (inactive) | 2.3 µM (inactive) | 13.8 µM (inactive) | 58.6 µM (inactive) | 0.0556 µM (active) | 37.2 µM (inactive) | > 41.1 µM (inactive) | 0.1 µM (active) | 0.0344 µM (active) | 3.36 µM (inactive) | 3.08 µM (inactive) | < 0.0426 µM (active) | 7.57 µM (inactive) |
| Nc1ccc(Cn2ccc3c4c(N)nc(N)nc4ccc32)cc1 | < 0.01 µM (active) | < 0.01 µM (active) | 0.431 µM (active) | < 0.01 µM (active) | 0.406 µM (active) | 0.0321 µM (active) | 0.0847 µM (active) | < 0.01 µM (active) | 2.28 µM (inactive) | 0.0351 µM (active) | < 0.01 µM (active) | 0.0141 µM (active) | < 0.01 µM (active) | 6.47 µM (inactive) | < 0.01 µM (active) | 0.118 µM (active) | < 0.0127 µM (active) | 0.628 µM (active) | 0.0119 µM (active) | 1.54 µM (inactive) |
| COc1ccc(S(=O)(=O)N/N=C/CN2C(=O)c3ccccc3C2=O)cc1OC | > 100 µM (inactive) | > 100 µM (inactive) | > 100 µM (inactive) | > 100 µM (inactive) | > 100 µM (inactive) | > 100 µM (inactive) | > 100 µM (inactive) | > 100 µM (inactive) |  |  | > 100 µM (inactive) | > 100 µM (inactive) | > 100 µM (inactive) | > 100 µM (inactive) | > 100 µM (inactive) | > 100 µM (inactive) | > 100 µM (inactive) | > 100 µM (inactive) | > 100 µM (inactive) | > 100 µM (inactive) |
| CCOC(=O)NC(=O)c1cn(CCCCCCOC(=O)NCCCCCCNC(=O)OCCCCCCn2cc(C(=O)NC(=O)OCC)c(=O)[nH]c2=O)c(=O)[nH]c1=O | > 100 µM (inactive) | > 100 µM (inactive) | > 100 µM (inactive) | > 100 µM (inactive) | > 100 µM (inactive) | > 100 µM (inactive) | > 100 µM (inactive) | > 100 µM (inactive) |  |  | > 100 µM (inactive) | > 100 µM (inactive) | > 100 µM (inactive) | > 100 µM (inactive) | > 100 µM (inactive) | > 100 µM (inactive) | > 100 µM (inactive) | > 100 µM (inactive) | > 100 µM (inactive) | > 100 µM (inactive) |
| O=CN/C=C/c1ccccc1O | > 100 µM (inactive) | > 100 µM (inactive) | > 100 µM (inactive) | > 100 µM (inactive) | > 100 µM (inactive) | > 100 µM (inactive) | > 100 µM (inactive) | > 100 µM (inactive) |  |  | > 100 µM (inactive) | > 100 µM (inactive) | > 100 µM (inactive) | > 100 µM (inactive) | > 100 µM (inactive) | > 100 µM (inactive) | > 100 µM (inactive) | > 100 µM (inactive) | > 100 µM (inactive) | > 100 µM (inactive) |
| Nc1nc2[nH]c(=O)cnc2c(=O)[nH]1 [ISOXANTHOPTERIN] | > 125 µM (inactive) | > 125 µM (inactive) | > 125 µM (inactive) | > 125 µM (inactive) | > 125 µM (inactive) | > 125 µM (inactive) | > 19.8 µM (inactive) | > 125 µM (inactive) |  | > 125 µM (inactive) | > 72.4 µM (inactive) | > 125 µM (inactive) | > 125 µM (inactive) | > 125 µM (inactive) | > 125 µM (inactive) | > 125 µM (inactive) | > 125 µM (inactive) | > 125 µM (inactive) | > 125 µM (inactive) | > 125 µM (inactive) |
